For data set [1], the system named is KB cells. Kind of data set: Confocal fluorescence microscopic imaging of FITC-CAPs. It counts as cell-based. The conditions noted are these: 10 µM, 1 h, confocal laser scanning microscope. On the procedure:
(§1) KB and 3T3-L1 cells were cultured on 8-well chambered cover glasses (Iwaki, Tokyo, Japan) and incubated with FITC-CAPs (10 μM) for 1 h. The medium was removed and cells were washed twice with ice-cold PBS containing heparin (20 units/mL) and twice with ice-cold PBS. Subsequently, the cells were incubated with Hoechst 33342 (2.5 µg/mL) for 30 min and then washed twice with ice-cold PBS. Fluorescent images were captured using a confocal laser scanning microscope (LSM710, Carl Zeiss Inc., Jena, Germany) with excitation wavelengths of 405 nm (UV laser) for Hoechst 33342 and 488 nm (Ar laser) for FITC-CAPs.

Data set [2] relates to KB cells. Briefly: Cellular uptake of FITC-CAPs. The conditions noted are these: 1 μM, 37 °C, 2 h post-incubation, heparin/PBS wash, lysate fluorescence; mean ± SEM, n = 7–13. In kind it is cell-based. As to the method: (§2) Epidermoid carcinoma KB cells were provided by DS Pharma Biomedical Co., Ltd. (Suita, Japan). Mouse fibroblast-like 3T3-L1 cells were obtained from the JCRB Cell Bank (Tokyo, Japan). KB cells were cultured in Eagle’s minimal essential medium supplemented with 10% fetal bovine serum. The 3T3-L1 cells were grown in Dulbecco’s modified Eagle’s medium supplemented with 10% bovine calf serum. All media were supplemented with 100 IU/mL penicillin and 100 μg/mL streptomycin. The cells were maintained in a humidified atmosphere containing 5% CO2 at 37 °C.
(§3) Each cell line was grown to confluence in a 12-well plate and washed with PBS. FITC-CAPs (1 μM) or ^67Ga-NOTA-CAPs (1.0 kBq) (Figure S2C) in a growing medium (0.6 mL) were added to each cell and incubated at 37 °C for each time point. After incubation, the cells were washed twice with 20 units of heparin/PBS (0.5 mL) and lysed using cell lysis buffer M from Fujifilm Wako (Osaka, Japan) at 37 °C for 20 min. The radioactivity and fluorescence of the lysates was measured using a gamma counter and fluorescence microplate reader, respectively, and the protein concentration was determined using a Bradford protein assay kit (Bio-Rad, Hercules, CA, USA). Data are expressed as percentage uptake per milligram of protein (% uptake/mg protein).

In data set [3] the test system is 3T3-L1 cells. Briefly: Confocal fluorescence microscopic imaging of FITC-CAPs. It counts as cell-based, mouse. The conditions noted are these: 10 µM, 1 h, confocal laser scanning microscope. As to the method:
as §1

Data set [4] has as its system 3T3-L1 cells. Briefly: Cellular uptake of FITC-CAPs. It counts as cell-based, mouse. The conditions noted are these: 1 μM; for Difference in FITC-CAP uptake between KB and 3T3-L1 cells (specificity for cancer cells): 2 h, ANOVA with Tukey's test. As to the method:
as §2, §3

Data set [5] in a line: In vitro stability in mouse plasma. The conditions noted are these: freshly prepared mouse plasma, 37 °C, 1 h, 10 μL tracer + 90 μL plasma, CH3CN precipitation, HPLC; mean (SEM) of three experiments.
Description: The in vitro stability of ^67Ga-NOTA-CAPs in phosphate-buffered saline (PBS) and mouse plasma was analyzed according to a previously reported procedure [29, 30, 31]. In brief, each radiotracer (10 μL; 2.0–3.0 MBq) was added to PBS (90 μL) and incubated at 37 °C for 24 h or to freshly prepared mouse plasma (90 μL) and incubated at 37 °C for 1 h. […] The mouse plasma solution was added to ice-cold CH3CN (300 μL) and centrifuged at 9400 rcf for 4 min. The supernatant was filtered through a 0.22 μm membrane before HPLC analysis.
Data set [6] is described as follows: Biodistribution in tumor-bearing mice. The conditions noted are these: female, BALB/c nu/nu, mouse, iv, 10 kBq/100 uL, total radioactivity.
Description: (§4) BALB/c nu/nu mice (female; 4 weeks old) were supplied by Japan SLC Inc. (Shizuoka, Japan). The mice were maintained in a room at a constant ambient temperature and a 12/12 h light/dark cycle, and they were given free access to food and water. Mice were subcutaneously injected on their right shoulders with approximately 1.0 × 10^7 KB cells. The tumors were allowed to reach 300–500 mm^3 (1‒2 weeks after inoculation) before biodistribution studies were performed.
(§5) The ^67Ga-NOTA-CAPs (10 kBq/100 μL) were intravenously injected into the mice via the tail vein. The mice were sacrificed at the designated time intervals, and the organs were dissected. The tissues were then weighed, and radioactivity was measured by automated gamma counting (n = 5).
Data set [7] relates to KB tumor-bearing mice. Briefly: Biodistribution in tumor-bearing mice. The conditions noted are these: 30 min after administration, KB xenograft, i.v.; mean (SD) of 4–6 mice.
Description: as §4, §5
The test system of data set [8] is KB tumor-bearing mice. Conditions: mouse, in vivo.
Description: as §4, §5
The nature of a further data set: in vivo. The conditions noted are these: female, BALB/c nu/nu, mouse, iv, 10 kBq/100 uL, total radioactivity.

Non-standard residues stand in square brackets, D forms with d. Residues, ends and D or L forms follow the SMILES beside them. *: point of attachment. FITC = O=C1OC2(c3ccc(O)cc3Oc3cc(O)ccc32)c2ccc(NC(=S)*)cc21; NOTA = O=C(O)CN1CCN(CC(=O)O)CCN(CC(=O)*)CC1; Ahx = NCCCCCC(=O)O

Description for in vivo: as §4, §5

Regarding `CC(C)[C@H](NC(=O)[C@H](CCCNC(=N)N)NC(=O)[C@@H](NC(=O)[C@H](CCCNC(=N)N)NC(=O)[C@@H](NC(=O)[C@H](CCCNC(=N)N)NC(=O)[C@@H](NC(=O)[C@@H]1CCCN1C(=O)[C@H]1CCCN1C(=O)[C@@H](NC(=O)[C@H](CCCNC(=N)N)NC(=O)[C@@H](NC(=O)[C@H](CCCNC(=N)N)NC(=O)[C@@H](NC(=O)[C@H](CCCNC(=N)N)NC(=O)[C@@H](NC(=O)[C@H](CCCNC(=N)N)NC(=O)CCCCCNC(=S)Nc1ccc2c(c1)C(=O)OC21c2ccc(O)cc2Oc2cc(O)ccc21)C(C)C)C(C)C)C(C)C)C(C)C)[C@@H](C)O)C(C)C)C(C)C)C(=O)N[C@@H](CCCNC(=N)N)C(N)=O` [FITC-RV6] ({FITC-Ahx}-RVRVRVRV[dP]PTRVRVRVR-NH2), the “Cellular localization in KB cells” value with KB cells [1] is “also accumulated in the cytoplasm and nucleus”. For the same compound, in the data set on KB cells [2], the “Cellular uptake of FITC-CAPs into KB cells” value is recorded as 36.0% ± 2.63 % uptake/mg protein. Further, in the data set with 3T3-L1 cells [3], the “Fluorescence signal in 3T3-L1 cells” value is “strong fluorescence signals”. In addition, the “Cellular uptake of FITC-CAPs into 3T3-L1 cells” value in the data set with 3T3-L1 cells [4] (37 °C, 2 h post-incubation, heparin/PBS wash, lysate fluorescence, mean ± SEM, n = 7–13) is given as 26.6% ± 2.18 % uptake/mg protein. Also, the “Difference in FITC-CAP uptake between KB and 3T3-L1 cells (specificity for cancer cells)” value with 3T3-L1 cells [4] is on record as “low specificity for cancer cells”.
As to `CC(C)[C@H](NC(=O)[C@H](Cc1c[nH]cn1)NC(=O)[C@@H](NC(=O)[C@H](Cc1c[nH]cn1)NC(=O)[C@@H](NC(=O)[C@H](Cc1c[nH]cn1)NC(=O)[C@@H](NC(=O)[C@@H]1CCCN1C(=O)[C@H]1CCCN1C(=O)[C@@H](NC(=O)[C@H](Cc1c[nH]cn1)NC(=O)[C@@H](NC(=O)[C@H](Cc1c[nH]cn1)NC(=O)[C@@H](NC(=O)[C@H](Cc1c[nH]cn1)NC(=O)[C@@H](NC(=O)[C@H](Cc1c[nH]cn1)NC(=O)CN1CCN(CC(=O)O)CCN(CC(=O)O)CC1)C(C)C)C(C)C)C(C)C)C(C)C)[C@@H](C)O)C(C)C)C(C)C)C(=O)N[C@@H](Cc1c[nH]cn1)C(N)=O` [^67Ga-NOTA-HV6, metal not drawn] ({NOTA}-HVHVHVHV[dP]PTHVHVHVH-NH2), the “In vitro stability in mouse plasma, percentage of remaining intact radiotracer” value in data set [5] is 23.3 (0.75) %. Further, the tissue uptake at 2 h in [6] (kidney) came to 23 %ID/g. In addition, the tissue to tissue ratio at 2 h in [6] (tumor/blood) is 3.8; in [6] (tumor/muscle), 4.01 ± 2.05. Further, the Tumor uptake in the data set on KB tumor-bearing mice [7] was 3.18% ± 0.36 % ID/g.
For `CC(C)[C@H](NC(=O)[C@H](CCCNC(=N)N)NC(=O)[C@@H](NC(=O)[C@H](CCCNC(=N)N)NC(=O)[C@@H](NC(=O)[C@H](CCCNC(=N)N)NC(=O)[C@@H](NC(=O)[C@@H]1CCCN1C(=O)[C@H]1CCCN1C(=O)[C@@H](NC(=O)[C@H](CCCNC(=N)N)NC(=O)[C@@H](NC(=O)[C@H](CCCNC(=N)N)NC(=O)[C@@H](NC(=O)[C@H](CCCNC(=N)N)NC(=O)[C@@H](NC(=O)[C@H](CCCNC(=N)N)NC(=O)CN1CCN(CC(=O)O)CCN(CC(=O)O)CC1)C(C)C)C(C)C)C(C)C)C(C)C)[C@@H](C)O)C(C)C)C(C)C)C(=O)N[C@@H](CCCNC(=N)N)C(N)=O` [^67Ga-NOTA-RV6, metal not drawn] ({NOTA}-RVRVRVRV[dP]PTRVRVRVR-NH2), the “In vitro stability in mouse plasma, percentage of remaining intact radiotracer” value in [5] is given as 27.4 (2.94) %. For the same compound, the results for the tissue uptake at 2 h in [6] (kidney) and in data set [6] (liver) were 26.9 %ID/g and 53.8 %ID/g, respectively. The tissue to tissue ratio at 2 h in [6] (tumor/blood) amounted to 8; in [6] (tumor/muscle), 3.35 ± 0.64. Besides, in the data set on KB tumor-bearing mice [7], the Tumor uptake is 4.76% ± 1.50 % ID/g.
Regarding `CC(C)[C@H](NC(=O)[C@H](CCCCN)NC(=O)[C@@H](NC(=O)[C@H](CCCCN)NC(=O)[C@@H](NC(=O)[C@H](CCCCN)NC(=O)[C@@H](NC(=O)[C@@H]1CCCN1C(=O)[C@H]1CCCN1C(=O)[C@@H](NC(=O)[C@H](CCCCN)NC(=O)[C@@H](NC(=O)[C@H](CCCCN)NC(=O)[C@@H](NC(=O)[C@H](CCCCN)NC(=O)[C@@H](NC(=O)[C@H](CCCCN)NC(=O)CN1CCN(CC(=O)O)CCN(CC(=O)O)CC1)C(C)C)C(C)C)C(C)C)C(C)C)[C@@H](C)O)C(C)C)C(C)C)C(=O)N[C@@H](CCCCN)C(N)=O` [^67Ga-NOTA-KV6, metal not drawn] ({NOTA}-KVKVKVKV[dP]PTKVKVKVK-NH2), the tissue uptake at 2 h in data set [6] (kidney) turned out to be 118 %ID/g; in the data set “in vivo”, 32.6 %ID/g. The results for the tissue to tissue ratio at 2 h in data set [6] (tumor/blood) and in data set [6] (tumor/muscle) were 7.7 and 5.05 ± 1.51, respectively. In the data set on KB tumor-bearing mice [7], the Tumor uptake is 4.46% ± 0.58 % ID/g. In addition, the “Tumor-to-blood ratio compared among tracers” value in the data set with KB tumor-bearing mice [8] is listed as “significantly higher”. For the same compound, the “Tumor-to-muscle ratio compared among tracers” value in the data set with KB tumor-bearing mice [8] is given as “significantly greater”.
Turning to `CC(C)[C@H](NC(=O)[C@H](Cc1c[nH]cn1)NC(=O)[C@@H](NC(=O)[C@H](Cc1c[nH]cn1)NC(=O)[C@@H](NC(=O)[C@H](Cc1c[nH]cn1)NC(=O)[C@@H](NC(=O)[C@@H]1CCCN1C(=O)[C@H]1CCCN1C(=O)[C@@H](NC(=O)[C@H](Cc1c[nH]cn1)NC(=O)[C@@H](NC(=O)[C@H](Cc1c[nH]cn1)NC(=O)[C@@H](NC(=O)[C@H](Cc1c[nH]cn1)NC(=O)[C@@H](NC(=O)[C@H](Cc1c[nH]cn1)NC(=O)CCCCCNC(=S)Nc1ccc2c(c1)C(=O)OC21c2ccc(O)cc2Oc2cc(O)ccc21)C(C)C)C(C)C)C(C)C)C(C)C)[C@@H](C)O)C(C)C)C(C)C)C(=O)N[C@@H](Cc1c[nH]cn1)C(N)=O` [FITC-HV6] ({FITC-Ahx}-HVHVHVHV[dP]PTHVHVHVH-NH2), the “Cellular localization in KB cells” value in the data set on KB cells [1] was “also accumulated in the cytoplasm and nucleus”. The “Cellular uptake of FITC-CAPs into KB cells” value in the data set with KB cells [2] is reported as 19.0% ± 0.94 % uptake/mg protein. In addition, the “Fluorescence signal in 3T3-L1 cells” value in the data set with 3T3-L1 cells [3] is “low fluorescence signals”. For the same compound, the “Difference in FITC-CAP uptake between KB and 3T3-L1 cells (specificity for cancer cells)” value in the data set on 3T3-L1 cells [4] is on record as “high selectivity for cancer cells”.

Usually tissue uptake stands for the percentage of the injected dose found per gram of tissue.

The values are drawn from paper PMC8155856, “Synthesis and Characterization of Radiogallium-Labeled Cationic Amphiphilic Peptides as Tumor Imaging Agents” (Cancers, 2021).
